For 31 compounds, AC50 results are on record in ChEMBL document CHEMBL5291721, “A preclinical secondary pharmacology resource illuminates target-adverse drug reaction associations of marketed drugs” (Nat Commun, 2023).

The target in one experiment is T1, Androgen receptor (Homo sapiens, UniProt P10275).
T1 sequence (P10275 whole entry): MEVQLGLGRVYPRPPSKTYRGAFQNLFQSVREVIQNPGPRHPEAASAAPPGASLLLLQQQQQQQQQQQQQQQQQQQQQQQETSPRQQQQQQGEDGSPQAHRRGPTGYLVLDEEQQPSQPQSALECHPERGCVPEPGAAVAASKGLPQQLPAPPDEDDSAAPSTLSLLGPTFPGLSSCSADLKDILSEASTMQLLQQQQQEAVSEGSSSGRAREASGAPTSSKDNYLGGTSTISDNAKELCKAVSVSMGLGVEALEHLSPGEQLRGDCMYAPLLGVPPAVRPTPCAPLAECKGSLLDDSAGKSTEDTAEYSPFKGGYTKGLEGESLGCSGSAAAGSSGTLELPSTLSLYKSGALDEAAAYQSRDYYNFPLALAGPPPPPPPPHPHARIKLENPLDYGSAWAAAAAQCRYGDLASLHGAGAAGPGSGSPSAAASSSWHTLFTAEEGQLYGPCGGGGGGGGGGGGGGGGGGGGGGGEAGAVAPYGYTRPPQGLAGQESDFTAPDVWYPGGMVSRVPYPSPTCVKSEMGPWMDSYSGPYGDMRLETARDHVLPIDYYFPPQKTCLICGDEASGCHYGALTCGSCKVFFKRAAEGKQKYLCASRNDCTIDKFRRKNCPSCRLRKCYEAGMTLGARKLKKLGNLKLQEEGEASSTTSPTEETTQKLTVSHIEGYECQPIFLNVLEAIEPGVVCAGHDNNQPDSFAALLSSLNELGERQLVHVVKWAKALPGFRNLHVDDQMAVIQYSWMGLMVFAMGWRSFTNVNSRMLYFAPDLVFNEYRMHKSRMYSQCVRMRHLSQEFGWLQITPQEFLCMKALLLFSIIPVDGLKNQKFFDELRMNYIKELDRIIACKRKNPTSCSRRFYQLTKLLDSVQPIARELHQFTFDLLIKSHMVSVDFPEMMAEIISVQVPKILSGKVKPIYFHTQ

For experiment [1], the target named is 5-hydroxytryptamine receptor 2B (Homo sapiens, UniProt P41595).
5-hydroxytryptamine receptor 2B, sequence (P41595 whole entry): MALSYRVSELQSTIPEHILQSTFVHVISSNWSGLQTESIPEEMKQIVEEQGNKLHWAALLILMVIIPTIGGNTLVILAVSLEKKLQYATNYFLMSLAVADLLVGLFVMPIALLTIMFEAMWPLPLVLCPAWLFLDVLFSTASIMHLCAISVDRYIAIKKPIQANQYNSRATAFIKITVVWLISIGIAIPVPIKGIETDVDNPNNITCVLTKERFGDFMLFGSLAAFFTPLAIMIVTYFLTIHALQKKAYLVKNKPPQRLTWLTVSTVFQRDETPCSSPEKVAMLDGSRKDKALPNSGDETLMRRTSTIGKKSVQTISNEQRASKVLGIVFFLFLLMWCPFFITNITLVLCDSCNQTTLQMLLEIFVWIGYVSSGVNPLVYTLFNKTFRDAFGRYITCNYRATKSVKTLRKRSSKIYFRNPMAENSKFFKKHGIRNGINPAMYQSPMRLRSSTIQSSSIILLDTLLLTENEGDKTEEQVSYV
In experiment [2] the target is T2, Alpha-2A adrenergic receptor (Homo sapiens, UniProt P08913).
T2 sequence (P08913 whole entry): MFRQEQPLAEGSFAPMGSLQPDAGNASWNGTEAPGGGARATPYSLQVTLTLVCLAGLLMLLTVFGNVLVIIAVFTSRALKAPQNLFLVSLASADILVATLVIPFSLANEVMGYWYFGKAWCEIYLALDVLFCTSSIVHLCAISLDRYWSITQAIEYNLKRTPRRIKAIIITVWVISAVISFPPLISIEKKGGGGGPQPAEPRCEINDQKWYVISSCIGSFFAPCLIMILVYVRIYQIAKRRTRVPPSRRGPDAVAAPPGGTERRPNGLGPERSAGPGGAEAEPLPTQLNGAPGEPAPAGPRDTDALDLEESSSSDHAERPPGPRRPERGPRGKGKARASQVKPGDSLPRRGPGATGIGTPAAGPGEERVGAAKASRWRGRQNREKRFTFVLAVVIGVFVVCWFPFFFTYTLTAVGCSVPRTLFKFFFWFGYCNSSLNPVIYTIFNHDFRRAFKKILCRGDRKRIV

Experiment [3] concerns the target T3, Muscarinic acetylcholine receptor M2 (Homo sapiens, UniProt P08172).
T3 sequence (P08172 whole entry): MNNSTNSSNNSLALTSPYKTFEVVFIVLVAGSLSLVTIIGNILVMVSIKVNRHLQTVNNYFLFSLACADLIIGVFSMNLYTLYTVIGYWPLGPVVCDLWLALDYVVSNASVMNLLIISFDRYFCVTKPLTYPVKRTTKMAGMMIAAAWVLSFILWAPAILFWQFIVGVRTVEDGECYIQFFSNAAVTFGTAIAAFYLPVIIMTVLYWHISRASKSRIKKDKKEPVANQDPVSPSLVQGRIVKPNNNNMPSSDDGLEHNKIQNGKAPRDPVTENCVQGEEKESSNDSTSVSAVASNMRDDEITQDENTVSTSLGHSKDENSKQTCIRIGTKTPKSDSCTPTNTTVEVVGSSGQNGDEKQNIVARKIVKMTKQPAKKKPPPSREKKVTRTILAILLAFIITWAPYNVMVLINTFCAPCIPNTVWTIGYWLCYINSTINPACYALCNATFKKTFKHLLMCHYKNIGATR

Experiment [4] concerns the target T4, Endothelin receptor type B (Homo sapiens, UniProt P24530).
T4 sequence (P24530 whole entry): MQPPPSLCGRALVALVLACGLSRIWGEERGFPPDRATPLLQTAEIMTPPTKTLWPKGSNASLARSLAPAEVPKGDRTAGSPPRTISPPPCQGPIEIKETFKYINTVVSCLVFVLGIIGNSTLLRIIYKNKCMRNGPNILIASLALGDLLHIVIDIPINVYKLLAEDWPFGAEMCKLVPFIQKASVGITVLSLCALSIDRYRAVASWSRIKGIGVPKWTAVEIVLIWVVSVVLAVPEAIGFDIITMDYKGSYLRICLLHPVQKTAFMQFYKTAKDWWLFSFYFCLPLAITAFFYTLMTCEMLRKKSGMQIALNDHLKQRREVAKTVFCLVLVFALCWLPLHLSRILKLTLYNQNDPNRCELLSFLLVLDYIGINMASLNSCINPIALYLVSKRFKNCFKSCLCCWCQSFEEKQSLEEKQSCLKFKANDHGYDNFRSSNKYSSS

The target in a further experiment is Estrogen receptor beta (Homo sapiens, UniProt Q92731).
Estrogen receptor beta, sequence (Q92731 whole entry): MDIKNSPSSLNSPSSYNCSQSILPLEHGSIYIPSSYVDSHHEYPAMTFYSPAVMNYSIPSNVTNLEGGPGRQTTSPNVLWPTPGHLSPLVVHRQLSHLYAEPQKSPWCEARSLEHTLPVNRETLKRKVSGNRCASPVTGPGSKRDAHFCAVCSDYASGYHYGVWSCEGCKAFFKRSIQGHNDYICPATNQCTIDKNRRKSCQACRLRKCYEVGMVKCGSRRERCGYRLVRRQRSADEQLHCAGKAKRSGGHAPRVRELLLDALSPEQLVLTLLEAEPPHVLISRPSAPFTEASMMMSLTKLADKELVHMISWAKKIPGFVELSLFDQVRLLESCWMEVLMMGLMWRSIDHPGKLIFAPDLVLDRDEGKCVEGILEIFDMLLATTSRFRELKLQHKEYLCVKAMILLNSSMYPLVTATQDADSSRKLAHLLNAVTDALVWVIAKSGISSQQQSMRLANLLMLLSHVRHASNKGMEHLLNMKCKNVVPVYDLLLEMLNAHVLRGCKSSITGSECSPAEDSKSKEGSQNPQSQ
The target of experiment [5] is T5, Gastric inhibitory polypeptide receptor (Homo sapiens, UniProt P48546).
T5 sequence (P48546 whole entry): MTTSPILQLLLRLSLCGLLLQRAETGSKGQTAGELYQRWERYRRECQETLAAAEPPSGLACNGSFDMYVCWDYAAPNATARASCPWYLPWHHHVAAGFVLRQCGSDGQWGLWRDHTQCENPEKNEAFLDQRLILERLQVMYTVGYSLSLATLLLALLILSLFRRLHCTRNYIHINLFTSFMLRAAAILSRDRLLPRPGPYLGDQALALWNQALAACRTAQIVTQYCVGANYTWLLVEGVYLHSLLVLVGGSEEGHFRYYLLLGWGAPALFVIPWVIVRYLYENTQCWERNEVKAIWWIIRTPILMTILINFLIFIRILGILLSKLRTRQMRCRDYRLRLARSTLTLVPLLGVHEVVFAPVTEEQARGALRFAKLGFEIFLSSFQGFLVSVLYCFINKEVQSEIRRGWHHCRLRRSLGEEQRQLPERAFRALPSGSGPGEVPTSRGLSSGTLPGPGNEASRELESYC

Experiment [6] concerns the target Gamma-aminobutyric acid receptor subunit alpha-1/alpha-2/beta-2/gamma-2 (Homo sapiens, UniProt P14867+P18507+P47869+P47870). It is filed as functional, cell-based.
Also: assay procedure not described here.

Gamma-aminobutyric acid receptor subunit alpha-1/alpha-2/beta-2/gamma-2, sequence (P14867 whole entry): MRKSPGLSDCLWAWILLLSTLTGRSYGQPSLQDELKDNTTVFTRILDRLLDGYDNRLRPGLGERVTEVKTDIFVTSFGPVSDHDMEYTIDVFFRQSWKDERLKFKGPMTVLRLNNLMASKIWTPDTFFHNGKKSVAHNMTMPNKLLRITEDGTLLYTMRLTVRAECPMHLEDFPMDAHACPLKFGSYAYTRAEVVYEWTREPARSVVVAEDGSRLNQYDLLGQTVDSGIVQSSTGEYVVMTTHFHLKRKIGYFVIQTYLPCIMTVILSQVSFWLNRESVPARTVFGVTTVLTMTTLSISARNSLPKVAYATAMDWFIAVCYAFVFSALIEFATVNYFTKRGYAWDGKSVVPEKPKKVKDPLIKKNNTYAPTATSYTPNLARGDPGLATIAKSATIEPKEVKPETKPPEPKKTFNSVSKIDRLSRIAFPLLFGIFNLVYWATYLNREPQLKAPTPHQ
Gamma-aminobutyric acid receptor subunit alpha-1/alpha-2/beta-2/gamma-2, sequence (P47870 whole entry): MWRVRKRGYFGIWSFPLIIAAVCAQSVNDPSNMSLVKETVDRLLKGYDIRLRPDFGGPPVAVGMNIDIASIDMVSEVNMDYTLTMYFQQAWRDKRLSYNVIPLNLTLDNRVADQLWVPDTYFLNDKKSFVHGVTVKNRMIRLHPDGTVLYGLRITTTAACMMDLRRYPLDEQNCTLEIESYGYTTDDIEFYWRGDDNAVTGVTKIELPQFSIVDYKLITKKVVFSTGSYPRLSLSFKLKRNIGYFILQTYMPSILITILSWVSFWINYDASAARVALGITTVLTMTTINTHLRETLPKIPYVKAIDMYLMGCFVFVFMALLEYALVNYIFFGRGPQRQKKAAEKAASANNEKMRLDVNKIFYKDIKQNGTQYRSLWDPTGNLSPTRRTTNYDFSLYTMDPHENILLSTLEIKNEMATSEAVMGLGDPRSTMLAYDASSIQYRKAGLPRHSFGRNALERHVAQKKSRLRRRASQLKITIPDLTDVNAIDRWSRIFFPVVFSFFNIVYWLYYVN
Gamma-aminobutyric acid receptor subunit alpha-1/alpha-2/beta-2/gamma-2, sequence (P18507 whole entry): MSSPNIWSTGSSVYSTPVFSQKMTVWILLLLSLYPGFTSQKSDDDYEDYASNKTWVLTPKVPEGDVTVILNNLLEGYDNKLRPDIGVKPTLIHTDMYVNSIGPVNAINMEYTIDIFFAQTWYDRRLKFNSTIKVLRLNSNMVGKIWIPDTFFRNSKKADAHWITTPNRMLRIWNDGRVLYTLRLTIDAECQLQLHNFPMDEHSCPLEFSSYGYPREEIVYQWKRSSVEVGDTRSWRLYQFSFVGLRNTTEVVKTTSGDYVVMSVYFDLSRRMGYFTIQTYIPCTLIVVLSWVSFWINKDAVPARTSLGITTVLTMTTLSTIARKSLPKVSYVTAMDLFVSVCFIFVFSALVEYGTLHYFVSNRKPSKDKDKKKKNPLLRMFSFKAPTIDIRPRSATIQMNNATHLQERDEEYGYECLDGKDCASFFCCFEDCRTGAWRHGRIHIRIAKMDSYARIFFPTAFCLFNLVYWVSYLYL
Gamma-aminobutyric acid receptor subunit alpha-1/alpha-2/beta-2/gamma-2, sequence (P47869 whole entry): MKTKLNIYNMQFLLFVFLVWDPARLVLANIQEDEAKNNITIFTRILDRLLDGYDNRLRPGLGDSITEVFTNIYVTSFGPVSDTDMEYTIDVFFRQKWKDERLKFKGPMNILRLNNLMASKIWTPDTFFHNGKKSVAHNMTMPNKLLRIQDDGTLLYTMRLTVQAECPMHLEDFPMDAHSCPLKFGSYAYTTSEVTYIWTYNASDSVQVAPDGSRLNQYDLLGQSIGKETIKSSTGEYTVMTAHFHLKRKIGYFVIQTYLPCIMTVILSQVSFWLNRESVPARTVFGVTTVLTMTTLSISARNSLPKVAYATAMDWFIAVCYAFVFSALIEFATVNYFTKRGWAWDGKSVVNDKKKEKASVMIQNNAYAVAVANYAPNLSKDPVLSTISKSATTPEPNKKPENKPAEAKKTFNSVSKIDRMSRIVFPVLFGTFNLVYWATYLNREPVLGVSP

What is called AC50 is the concentration giving half of the maximal activity seen. In turn, `CC(C)N(CCNC(=O)CN1CCCC1=O)C(C)C` displayed an AC50 on Androgen receptor of over 30 µM.
As to `CCC[C@H](NC(=O)[C@@H]1[C@H]2CCC[C@H]2CN1C(=O)[C@@H](NC(=O)[C@@H](NC(=O)c1cnccn1)C1CCCCC1)C(C)(C)C)C(=O)C(=O)NC1CC1`, the AC50 in experiment [1], in experiment [2] and in experiment [3] was over 10 µM each time.
Regarding `CN1CCC(=C2c3ccccc3CCc3cccnc32)CC1` [AZATADINE], the figures for the AC50 in experiment [2] and in experiment [3] were over 10 µM and 0.064 µM, respectively.
In the case of `CC(C)COCC(CN(Cc1ccccc1)c1ccccc1)N1CCCC1` (stereo not given) [BEPRIDIL], the half-maximal activity concentration (AC50) (in experiment [4]; on Estrogen receptor beta; in experiment [5]) was over 30 µM each time.
As to `C/N=C(\NC)NCc1ccccc1` [BETHANIDINE], the half-maximal activity concentration (AC50) in experiment [6] was over 30 µM.
With `COc1cc(N2CCC(N3CCN(C)CC3)CC2)ccc1Nc1ncc(Cl)c(Nc2ccccc2P(C)(C)=O)n1` [BRIGATINIB], the AC50 on Androgen receptor was over 30 µM.
The same measure, in the same setting: the value for `CN(C)CCOC(c1ccccc1)c1ccc(Br)cc1` (stereo not given) [BROMODIPHENHYDRAMINE] was over 30 µM.
On to `CNC1=Nc2ccc(Cl)cc2C(c2ccccc2)=[N+]([O-])C1` [CHLORDIAZEPOXIDE], for which the AC50 in experiment [2] is over 10 µM.
As for `O=C(O)c1cn(C2CC2)c2cc(N3CCNCC3)c(F)cc2c1=O` [CIPROFLOXACIN], the concentration at half-maximal activity (AC50) (in experiment [4]; on Estrogen receptor beta; in experiment [5]) was over 30 µM in each case.
Take `COc1cc(N)c(Cl)cc1C(=O)NC1CCN(Cc2ccccc2)CC1` [CLEBOPRIDE]: the AC50 in experiment [1] was found to be 0.0079 µM.
Regarding `CC(CCc1ccc(O)cc1)NCCc1ccc(O)c(O)c1` (stereo not given) [DOBUTAMINE], the AC50 was over 30 µM in experiment [4]; over 30 µM at Estrogen receptor beta; over 30 µM in experiment [5]; over 10 µM in experiment [1]; 10.8 µM in experiment [2]; over 10 µM in experiment [3].
Take `CCC(=O)O[C@]1(C(=O)SCF)[C@H](C)C[C@H]2[C@@H]3C[C@H](F)C4=CC(=O)C=C[C@]4(C)[C@@]3(F)[C@@H](O)C[C@@]21C` [FLUTICASONE PROPIONATE]: the concentration at half-maximal activity (AC50) is over 30 µM in experiment [4]; over 30 µM in experiment [5]; over 10 µM in experiment [1]; over 10 µM in experiment [2]; over 10 µM in experiment [3].
For `C[C@]12CC[C@@H]3c4ccc(O)cc4C[C@@H](CCCCCCCCC[S+]([O-])CCCC(F)(F)C(F)(F)F)[C@H]3[C@@H]1CC[C@@H]2O` (stereo not given in full) [FULVESTRANT], the AC50 in experiment [6] was over 30 µM.
On to `Cc1cnc(C(=O)NCCc2ccc(S(=O)(=O)NC(=O)NC3CCCCC3)cc2)cn1` [GLIPIZIDE], for which the AC50 is over 30 µM in experiment [4], over 30 µM at Estrogen receptor beta, over 30 µM in experiment [5] and over 10 µM in experiment [2].
For `CC(C)NCC(O)c1ccc(O)c(O)c1` (stereo not given) [ISOPROTERENOL], the half-maximal activity concentration (AC50) was over 30 µM in experiment [4]; over 30 µM at Estrogen receptor beta; over 30 µM in experiment [5]; over 10 µM in experiment [1]; over 10 µM in experiment [3].
Regarding `Oc1ccc2c(c1)CC[C@H](c1ccccc1)[C@@H]2c1ccc(OCCN2CCCC2)cc1` [LASOFOXIFENE], the concentration at half-maximal activity (AC50) in experiment [6] is over 30 µM; in experiment [1] it was 0.272 µM.
For the compound `CN1CCN(C2=Nc3ccccc3Oc3ccc(Cl)cc32)CC1` [LOXAPINE], the AC50 (in experiment [4]; on Estrogen receptor beta; in experiment [5]) was over 30 µM throughout.
As for `OC1(c2ccc(Cl)cc2)c2ccccc2C2=NCCN21` (stereo not given) [MAZINDOL], the half-maximal activity concentration (AC50) in experiment [4] was 33.1 µM; at Estrogen receptor beta it was over 30 µM; in experiment [5] it was over 30 µM; in experiment [1], over 10 µM; in experiment [2], over 10 µM; in experiment [3], over 10 µM.
In the case of `CC12CC3CC(C)(C1)CC(N)(C3)C2` [MEMANTINE], the AC50 (in experiment [4]; at Estrogen receptor beta; in experiment [5]) was over 30 µM in each case.
In experiment [1], `CN(C)CCCNc1c2ccccc2nc2cccc([N+](=O)[O-])c12` [NITRACRINE] had an AC50 of 0.2 µM.
In turn, `O=[N+]([O-])c1ccc(O)c2ncccc12` [NITROXOLINE] displayed a half-maximal activity concentration (AC50) in experiment [6] of over 30 µM.
The compound `CCCc1nc(C(C)(C)O)c(C(=O)O)n1Cc1ccc(-c2ccccc2-c2nnn[nH]2)cc1` [OLMESARTAN] registered an AC50 on Androgen receptor of over 30 µM.
Same read-out and setting: under `NCC(CC(=O)O)c1ccccc1` (stereo not given) [PHENIBUT] stands over 30 µM.
With `CC(N)C(O)c1ccccc1` (stereo not given) [PHENYLPROPANOLAMINE], the AC50 is over 30 µM in experiment [4]; over 30 µM in experiment [5]; over 10 µM in experiment [1]; over 10 µM in experiment [2]; over 10 µM in experiment [3].
As to `c1ccc2c(c1)CCc1ccccc1N2C1CN2CCC1CC2` (stereo not given) [QUINUPRAMINE], the half-maximal activity concentration (AC50) at Androgen receptor was over 30 µM.
Same read-out and setting: under `C[C@H](Cc1cc2c(c(C(N)=O)c1)N(CCCO)CC2)NCCOc1ccccc1OCC(F)(F)F` [SILODOSIN] stands over 30 µM; under `CC1=CCC(C(C)(C)O)CC1O` (stereo not given) [SOBREROL], over 30 µM; under `CCOC(=O)N1CSC[C@H]1C(=O)O` [TELMESTEINE], over 30 µM.
With `CCC(C)C(CC)C(N)=O` (stereo not given) [VALNOCTAMIDE], the half-maximal activity concentration (AC50) in experiment [6] was over 30 µM.
Turning to `CCOC(=O)C1=C[C@]2(CC)CCCN3CCc4c(n1c1ccccc41)[C@@H]32` [VINPOCETINE], the AC50 in experiment [1] is over 30 µM.
With `Cc1cc(C(C)(C)C)cc(C)c1CC1=NCCN1` [XYLOMETAZOLINE], the AC50 in experiment [6] was over 30 µM; in experiment [1] it was 1.56 µM; in experiment [2], 0.03 µM.
